Measurements reported in US20240294659A1, “Method and Compositions for Inducing Differentiation of Myeloid Derived Suppressor Cell to Treat Cancer and Infectious Diseases” (OSE Immunotherapeutics, priority 2014, published 2024).

Tests used:
[1] = system: Hepa1.6 mouse hepatoma cells; experiment: Hepatocellular carcinoma mice model; type: in vivo; details: Sorafenib 40 mg/kg daily oral gavage, day 0 to day 28 (FIG. 10)
Method: Eight-weeks-old C57B1/6J male mice received 2.5×10^6Hepa1.6 mouse hepatoma cells in 100 μL through the portal vein, as previously described (Gauttier et al., 2014). Four and eight days after tumour inoculation, mice were injected intraperitoneally with 100 μg of rat anti-CD137 mAb (4-1BB mAb), or with 300 μg of anti-mouse SIRPα monoclonal antibody (clone P84 from Merck Millipore) or both antibodies or an irrelevant control antibody (clone 3G8) 3 times/week for 4 weeks (FIG. 17A) or with 200 μg of the anti-PD-LI mAb (clone 10F-9G2 from BioXCell) or received both antibodies (anti-SIRPα+anti-PDL1) for 4 weeks (FIG. 17B). Sorafenib (Nexavar-Bayer) treated mice received daily 100 μl oral gavage of 40 mg/kg from day 0 to day 28 (FIG. 10). The overall survival was analyzed. Some mice were sacrificed at day 14 after tumor inoculation for leukocytes tumor infiltration quantification and characterization by isolation of non-parenchymal cells of the liver by a Percoll gradient and FACS analysis.

[2] = system: rat MDSC; experiment: Rat MDSC two-day culture with anti-SIRPα antibody, with or without GM-CSF, phenotype by flow cytometry; type: cell-based; details: two days, GM-CSF 10 ng/ml with or without anti-SIRPα 10 μg/ml (FIG. 4)
Source text: Human blood MDSC were characterized and sorted by flow cytometry as follow: CD11b^+CD33^+HLA-DR^low/−CD14^+CD15^− for Mo-MDSC and CD11b^+CD33^+HLA-DR^− CD14^− CD15+ for PMN-MDSC. Rat blood and spleen MDSC were characterized and sorted by flow cytometry as CD11b^+MHC ClassII-NKRP1^int (both Mo-MDSC and PMN-MDSC was included in this phenotype). Mouse MDSC were characterize as follow: CD11b^+MHC Class II-Ly6C^high Ly6G^− for Mo-MDSC and CD11b^+MHC Class II-Ly6C^+Ly6G^+ for PMN-MDSC.
MDSC were purified by flow cytometry according to previously described phenotypes. Purity of cells sorted by flow cytometry was higher than 99%. Freshly purified MDSC were then seeded at 50×10^3 cells/well in 96-well flat-bottomed microtiter plates and cultured for two days in RPMI-1640 medium (supplemented with 2 mM L-glutamine, 100 U/ml penicillin, 0.1 mg/ml streptomycin, 10% heat-inactivated fetal calf serum, 1% nonessential amino acids, 5 mM HEPES, 1 mM sodium pyruvate, and 1 μM 2-mercaptoethanol) and with irrelevant control antibody or anti-SIRPα monoclonal antibody (clone SE7C2 (Santa Cruz Biotechnology) and SE5A5 (Biolegend) for human MDSC or clone ED9 (AbD Serotec) for rat MDSC) at 10 μg/ml. In a different setting, recombinant GM-CSF (10 ng/ml) was also added to force the macrophages/dendritic cells differentiation. […]

Compound	mice rescued (overall survival) [1] [%]	differentiation of MDSC (MHC Class II, CD103, CD11b, CD80) [2]
CNC(=O)c1cc(Oc2ccc(NC(=O)Nc3ccc(Cl)c(C(F)(F)F)c3)cc2)ccn1 [Sorafenib]	60	–
GM-CSF: recombinant GM-CSF added to force the macrophages/dendritic cells differentiation	–	induce the differentiation of MDSC in mature MHC Class II^+ myeloids cells
